# Laboratory results published in a melting point compilation (Tetko et al.; mined from patent text by program, amines drawn as free bases though some values may be those of a salt).
row,Structure (SMILES),melting point
1,O=C(NCC(=O)c1c(O)cc(O)cc1OCc1ccccc1)OCc1ccccc1,129 to 131 °C
2,NC(=O)c1ccc(F)c2c1OCC(N(CCCCc1c[nH]c3ccc(F)cc13)CC1CC1)C2 (centres undefined),116 °C
3,Cn1nc(C(O)c2ccccn2)nc1NCCCOc1cccc(CN2CCCCC2)c1 (centres undefined),152 to 154 °C
4,COc1ccc(C(C)=O)cc1C12CC3CC(CC(C3)C1)C2,138 to 140 °C
5,CS(=O)(=O)NC1CCCOc2ccccc21 (centres undefined),105 to 106 °C
6,O=C1CCC(N2Cc3c(OCc4ccc(CN5CCC(c6cccc(F)c6)CC5)cc4)cccc3C2=O)C(=O)N1 (centres undefined),200 to 202 °C
7,COc1ccc(CCC(=O)Nc2cc3c(c(C)c2C)OC(C)(C)C3c2ccc(C)cc2)cc1 (centres undefined),149 to 150 °C
8,COCCCCCCCCCCCC(N)=O,83.9 to 85.6 °C
9,COc1cccc2sc(Sc3ccc4c(c3)CC[C@H]3N(C)C(=O)CC[C@]43C)nc12,200 to 205 °C
10,CCCC(=O)NCC1(C)Cc2c(C)c(N3CCN(c4ccc(OC)cc4)CC3)c(C)c(C)c2O1 (centres undefined),140 to 142 °C
11,O=C1OCc2cccc(CBr)c21,128 to 131 °C
12,CCOc1nc(NCc2ccco2)nc(Nc2ccccc2-c2cccnc2)n1,90 to 92 °C
13,O=C(Cl)CN1C(=O)c2ccc([N+](=O)[O-])cc2C1=O,129 to 130 °C
14,Cn1nc(-c2c(NCc3ccccc3)nc(N)nc2-c2ccccc2)ccc1=O,> 250 °C
15,CCOC(=O)Cn1c2c([nH]c(=O)c1=O)CCC1=C2C=C(n2ccc(CN3CCN(C(c4ccccc4)c4ccccc4)CC3)c2)CC1,> 200 °C
16,COC(=O)[C@@H]1CCCN1C(=O)CCC(=O)c1ccc(Br)cc1,78 to 82 °C
17,O=C1NC(=S)SC1=Cc1c(F)c(F)c(F)c(F)c1F,132 to 135 °C
18,O=C1CCCC(c2ccccc2)N1c1ccc(F)cc1 (centres undefined),87.5 to 88.5 °C
19,O=C(c1cccs1)C1CCN(CCc2ccccc2)CC1,77 to 79 °C
20,CCc1c(NC(=O)c2ccc(-c3ccc(F)cc3)cc2)ccc2cc(CN3CCCC3)cnc12,258 to 260 °C

row,Structure (SMILES),melting point
1,N#Cc1cc(-c2ccoc2)c2ccc(COc3cc(F)cc(-c4ccc(F)cc4)c3)cc2n1,177 to 180 °C
2,Cc1nc(N(C)c2ccccc2)n2ncc(C(=O)c3ccccc3)c2n1,121 °C
3,c1ccc(-c2ncc(-c3n[nH]c(-c4cccnc4)n3)cn2)cc1,322 to 333 °C
4,Cc1cc(-n2ccnc2)c2cccc(OCc3c(Cl)ccc(S(=O)(=O)N4CCC[C@H]4C(=O)NCC4CCN(CCCCO)CC4)c3Cl)c2n1,112 °C
5,CC(C)Sc1c(-c2ccc(S(C)(=O)=O)cc2)cnn(CC(F)(F)F)c1=O,165 to 167 °C
6,COc1cc(C(=O)O)ccc1Cc1c(Cl)n(C)c2ccc(CCNC(=O)N(C)C)cc12,215 °C
7,CS(=O)(=O)c1cccc(NC(=O)c2cnn3c(C(F)F)cc(-c4ccc(C(F)(F)F)c(OCC(F)(F)F)c4)nc23)c1,207 °C
8,N#CC(C(=O)C(=O)C(C#N)c1ccc(Cl)cc1)c1ccc(Cl)cc1 (centres undefined),255 °C
9,COC(=O)CN(C)c1cccc(-c2ccc(Cl)cc2)n1,54 °C
10,CCCCNC(=O)NS(=O)(=O)c1c(C(=O)OCC)c(Cl)nn1C,109 to 111 °C
11,CCOC(=O)C(C)Oc1ccc2cc(Oc3c(Cl)cc(C(F)(F)F)cc3Cl)ccc2c1 (centres undefined),118 to 120 °C
12,OC(c1ccc(F)cc1)(c1ccc(F)cc1)c1nccn1Cc1ccccc1,176 to 177 °C
13,Fc1ccc(Nc2ncnc3cnc(NC4CCCNC4)nc23)cc1Cl (centres undefined),194 to 199 °C
14,COC(=O)c1ccc(C(=O)C=C(c2cc(Cl)cc(Cl)c2)C(F)(F)F)cc1,65.5 to 67.5 °C
15,Clc1cc(Nn2cccc2)ncn1,196 to 198 °C
16,O=C(Nc1ccc(OCCCBr)cc1)c1cccc2c(=O)c3ccccc3[nH]c12,126 °C
17,CC(CC(C(=O)N(C)C)(c1ccccc1)c1ccccc1)N1CCC(NCc2ccccc2)C(O)C1 (centres undefined),134 °C
18,CN(C)Cc1ccc(-c2cc3onc(-c4ccccc4)c3c(=O)n2C)cc1,159 to 161 °C
19,Cc1ccc(C(=O)P2(=O)Oc3ccccc3-c3ccccc32)c(C)c1 (centres undefined),166 °C
20,CCOC(=O)C(Cc1cccc2cccnc12)(NC(=O)CC)C(=O)OCC,80 to 100 °C

row,Structure (SMILES),melting point
1,CCN1C(=O)C2=C(c3ccccc3)N(CC)C(=O)C2=C1c1ccccc1,229 to 230 °C
2,N#CCNC(=O)c1ncn2c1CN(C(=O)N1CCCC1)c1ccccc1-2,241 to 242 °C
3,Cc1cc2ccccc2n1-c1ccc(OCc2ccccc2)cc1,95 to 96 °C
4,NCc1nc(-c2ncn3c2[C@@H]2CCN2C(=O)c2cc(F)ccc2-3)no1,195 to 198 °C
5,CCN(CC)CCCNC(=O)/C(=C/C=C/c1cc2ccccc2o1)OC,79 °C
6,COC(=O)CCc1ccccc1-c1[nH]c2cccc3c2c1CCNC3=O,201 to 202 °C
7,CCN(CC)CCCCOc1ccc(-c2nnc(CSCCOc3ccccc3)o2)cc1,35 to 38 °C
8,Brc1cccc2[nH]cc(Sc3ccccc3)c12,137 to 139 °C
9,CC1(C)N=C(S)N=C(NC(=O)c2ccccc2)N1,176 to 178 °C
10,CN(C)C1(C(=O)c2cc3ccccc3n2C)CCC(c2ccccc2)(N(C)C)CC1 (centres undefined),109 to 111 °C
11,COP(=S)(NNC(C)(C)C)OC,51 to 54 °C
12,Cc1cc(CCCCCCCOc2ccc(C(=O)O)cc2)on1,129 to 130 °C
13,CC1(C)C=NC(CC(=O)O)(NC(c2ccccc2)(c2ccccc2)c2ccccc2)S1 (centres undefined),180 to 182 °C
14,CCCc1c(OCCCOc2ccc(C(=O)CCC(=O)O)c(Cl)c2)ccc(C(C)=O)c1O,143 to 144 °C
15,CC(=O)NCC(C)(C)c1ccc(C(=O)Nc2cn3cc(Cl)ccc3n2)cc1,220 to 222 °C
16,CCOC(=O)c1cc(NC(=O)C(Cc2cscn2)NC(=O)OC(C)(C)C)c[nH]1 (centres undefined),217 to 220 °C
17,COc1ccc(-c2nc(COc3cccc(N)c3)c(C)o2)cc1,132 to 134 °C
18,CCCCCCCCCCCCCCC[C@@H](O)C(Cl)C(=O)OC (some centres undefined),39 to 40 °C

# More lines, now with the values ahead:
row,melting point,Structure (SMILES)
1,138 °C,CCCCOc1cc(C(=O)NCCCN2CCCCC2)cc(S(N)(=O)=O)c1Cc1ccccc1
2,67.5 to 68.5 °C,CC(O)C1C(=O)NC1CC(=O)OCc1ccccc1 (mixture of isomers)
3,110 to 114 °C,CSC(=S)N1CCN(Cc2ccccc2N)CC1
4,145 to 148 °C,CCC(=CC(CNC(=O)c1ccncc1)=NO)C(C)[N+](=O)[O-] (centres undefined)
5,49 to 52 °C,CS(=O)(=O)c1ccc(-c2cc(/C=C/CO)nn2CC2CCCCC2)cc1
6,152 to 154 °C,O=C(O)CCc1cc(Cl)cc2nc(-c3ccccc3Cl)oc12
7,168 to 170 °C,C[C@@H](N1CC(=O)N(c2ccc(OC(F)(F)C(F)F)cc2)CC1=O)[C@@]1(c2ccc(F)cc2F)CO1
8,144 to 145 °C,O=C1N[C@H](Cc2ccc(Oc3ccccc3)cc2)[C@H](c2ccc(F)cc2)O1 (racemic)
9,106 to 108 °C,O=C(NC1CCc2ccccc2C(CCCc2ccccc2)C1=O)OCc1ccccc1 (centres undefined)
10,140 to 146 °C,O=c1[nH]nc(-c2ccc(NN=C(c3ccc(O)cc3O)c3ccc(O)cc3O)cc2)c2ccccc12
11,181 to 182 °C,CCN(CC)CCNc1ccc(CO)c2sc3ccc(O)cc3c(=O)c12
12,164 °C,Nn1c(=O)c(-c2cccs2)nc2ccccc21
13,161 to 163 °C,O=C1N(Cc2sccc2Cl)c2ccccc2C12COc1cc3c(cc12)OCO3 (centres undefined)
14,185 to 186 °C,FC(F)(F)COc1nc(-c2ccccc2)c2cc(Cl)ccc2n1
15,160 to 161 °C,CC=C1CCC2C3C(O)CC4CC(O)CCC4(C)C3CCC12C (centres undefined)
16,277 °C,Cc1ccccc1Sc1c(N)cc(C(=O)O)cc1S(N)(=O)=O
17,160 to 163 °C,Cc1cc2c(cc1O)C(C1(C3CCCc4ccccc43)CC1)N(C)CC2 (centres undefined)
18,299 to 301 °C,NC(=O)c1nc(-c2cccc(O)c2)nc2c1[nH]c(=O)n2[C@H]1CC[C@H](N)CC1
19,208 to 209 °C,CC(C)c1ccc(S(=O)(=O)Nc2ccc(N3CCC(NC(=O)OC(C)(C)C)CC3)nc2)cc1
20,74 to 79 °C,Cc1cccc(N=NC2=NCCS2)c1C
21,125 to 126 °C,O=C1OC2CCC1CC2

row,melting point,Structure (SMILES)
1,248 to 249 °C,NCCc1c(C(=O)O)[nH]c2ccc(Br)cc12
2,116 °C,COc1ccc(Sc2nc(-c3ccccc3)n(Cc3cc4c(cc3Cl)OCO4)c2C=O)cc1
3,70 °C,CCCCOc1c(OC)c(OC)cc(C)c1C(=O)c1c(Cl)cccc1Cl
4,218 to 220 °C,Cc1c(-c2ccc(C[C@H](NC(=O)c3c(F)cccc3C(F)(F)F)C(=O)O)cc2)c(=O)n(C)c(=O)n1C
5,87 to 91 °C,CCc1ccccc1CCC(=O)O
6,89 to 90 °C,CCOC(=O)CN1CCc2cc3c(cc2CC1)OCO3
7,156 to 158 °C,Cc1nc(Cn2nnnc2-c2cccc(Cl)c2Cl)cs1
8,55 to 58 °C,COC(=O)C1CC2=C(CO1)C(=O)C=CC2=O (centres undefined)
9,73 to 76 °C,COC(=O)c1c(-c2ccc(Cl)cc2)ccnc1Br
10,170 to 173 °C,NC(=O)CN1CCN(C(=O)c2cc(C(F)(F)F)cc(C(F)(F)F)c2)[C@H](Cc2c[nH]c3ccccc23)C1
11,209 to 211 °C,CC(=O)N1C(=O)N(COCc2ccccc2)C(=O)C12c1ccccc1NC(=O)N2C (centres undefined)
12,173 to 175 °C,O=C(O)Cc1nsc(NC(=O)c2ccccc2)n1
13,90 to 92 °C,ClC(Cl)(Cl)C1Nc2ccccc2CO1 (centres undefined)
14,110 to 112 °C,CC(C)C[C@@H](C(=O)O)N(C)Cc1ccc(C(C)(C)C)cc1
15,190 °C,O=C1c2ccc(OCCCO)cc2C(=O)c2ccc(OCCCO)cc21
16,62 °C,CCOC(=O)CCCCCn1c(C(=O)O)cc2ccccc21
17,68 to 69 °C,COc1ccccc1-c1cccc([N+](=O)[O-])c1
18,247 °C,NS(=O)(=O)c1cc(C(=O)O)cc([N+](=O)[O-])c1Oc1ccc(OCc2ccccc2)cc1
19,142 to 144 °C,N#Cc1cccc(C(=O)Cc2ccnnc2)c1
20,38 to 39 °C,Fc1ccc(NCc2ccccc2)cc1
